In paper PMC10272180, “Ancient medicinal plant rosemary contains a highly efficacious and isoform-selective KCNQ potassium channel opener” (Communications Biology, 2023):
Blank lines part the entries; values can stand above or below the compound they belong to.

Tests used:
[1] = molecular target: KCNQ3* (KCNQ3-A315T) (Homo sapiens, UniProt O43525, A315T); test: TEVC of KCNQ3* homomers expressed in Xenopus laevis oocytes; type: cell-based
[2] = molecular target: T1, KCNQ3/5 (Homo sapiens, UniProt O43525+Q9NR82); test: TEVC of KCNQ3/5 heteromers expressed in Xenopus laevis oocytes; type: cell-based; conditions: 5 µM each substance
T1 construct: expressed in transfected cells; host or cells: Xenopus laevis oocytes co-injected with cRNAs
Text: (§1) We generated cRNA transcripts encoding human KCNQ1, 2, 3, and 5 (wild-type and mutant) by in vitro transcription using the mMessage mMachine kit (Thermo Fisher Scientific, Waltham, MA, USA) according to manufacturer’s instructions, after vector linearization, from cDNA sub-cloned into expression vectors (pTLNx and pXOOM) incorporating Xenopus laevis β-globin 5’ and 3’ UTRs flanking the coding region to enhance translation and cRNA stability. Mutant KCNQ cDNAs were generated by Genscript (Piscataway, NJ, USA) and cRNAs made as above. We injected defolliculated stage V and VI Xenopus laevis oocytes (Xenoocyte, Dexter, MI, USA) with KCNQ cRNAs (2–10 ng) and incubated the oocytes at 16 °C in ND96 oocyte storage solution containing penicillin and streptomycin, with daily washing, for 2–4 days prior to two-electrode voltage-clamp (TEVC) recording.
(§2) We performed TEVC at room temperature using an OC-725C amplifier (Warner Instruments, Hamden, CT, USA) and pClamp10 software (Molecular Devices, Sunnyvale, CA, USA) 2–4 days after cRNA injection. We placed oocytes in a small-volume oocyte bath (Warner) and viewed them with a dissection microscope for cellular electrophysiology. We sourced chemicals from Sigma-Aldrich (St. Louis, MO, USA) and Combi-Blocks (San Diego, CA, USA). We studied effects of Salvia rosmarinus extracts and of compounds, solubilized directly in bath solution (in mM): 96 NaCl, 4 KCl, 1 MgCl2, 1 CaCl2, 10 HEPES (pH 7.6). We introduced extracts or compounds into the oocyte recording bath by gravity perfusion at a constant flow of 1 ml per minute for 3 min prior to recording. Pipettes were of 1-2 MΩ resistance when filled with 3 M KCl. […] We analyzed data using Clampfit (Molecular Devices) and Graphpad Prism software (GraphPad, San Diego, CA, USA), stating values as mean ± SEM. We plotted raw or normalized tail currents versus prepulse voltage and fitted with a single Boltzmann function:1 g=(A1−A2)/1+exp[V1/2−V/Vs]y+A2 where g is the normalized tail conductance, A1 is the initial value at -∞, A2 is the final value at +∞, V1/2 is the half-maximal voltage of activation and Vs the slope factor. We fitted activation and deactivation kinetics with single exponential functions.

[3] = Solubility limit for testing in bath solution; type: physicochemical
Text: We performed TEVC at room temperature using an OC-725C amplifier (Warner Instruments, Hamden, CT, USA) and pClamp10 software (Molecular Devices, Sunnyvale, CA, USA) 2–4 days after cRNA injection. We placed oocytes in a small-volume oocyte bath (Warner) and viewed them with a dissection microscope for cellular electrophysiology. We sourced chemicals from Sigma-Aldrich (St. Louis, MO, USA) and Combi-Blocks (San Diego, CA, USA). We studied effects of Salvia rosmarinus extracts and of compounds, solubilized directly in bath solution (in mM): 96 NaCl, 4 KCl, 1 MgCl2, 1 CaCl2, 10 HEPES (pH 7.6). We introduced extracts or compounds into the oocyte recording bath by gravity perfusion at a constant flow of 1 ml per minute for 3 min prior to recording. Pipettes were of 1-2 MΩ resistance when filled with 3 M KCl. We recorded currents in response to voltage pulses between −120 mV and +40 mV at 10 mV intervals from a holding potential of −80 mV, to yield current-voltage relationships and examine activation kinetics. We analyzed data using Clampfit (Molecular Devices) and Graphpad Prism software (GraphPad, San Diego, CA, USA), stating values as mean ± SEM. We plotted raw or normalized tail currents versus prepulse voltage and fitted with a single Boltzmann function:1 g=(A1−A2)/1+exp[V1/2−V/Vs]y+A2 where g is the normalized tail conductance, A1 is the initial value at -∞, A2 is the final value at +∞, V1/2 is the half-maximal voltage of activation and Vs the slope factor. We fitted activation and deactivation kinetics with single exponential functions.

[4] = molecular target: T2, KCNQ2/3 (Homo sapiens, UniProt O43525+O43526); test: TEVC of KCNQ2/3 heteromers expressed in Xenopus laevis oocytes; type: cell-based
T2 construct: expressed in transfected cells; host or cells: Xenopus laevis oocytes co-injected with cRNAs
Text: as §1
as §2, with “We” for “We performed TEVC at room temperature using an OC-725C amplifier (Warner Instruments, Hamden, CT, USA) and pClamp10 software (Molecular Devices, Sunnyvale, CA, USA) 2–4 days after cRNA injection. We”

[5] = molecular target: KCNQ2 (Homo sapiens, UniProt O43526); test: TEVC of KCNQ2 homomers expressed in Xenopus laevis oocytes; type: cell-based
Text: as §1, §2

[6] = 5 µM each substance, table head prints KCNQ3*, text says KCNQ3/5

KCNQ3* (KCNQ3-A315T), sequence (O43525 whole entry A315T): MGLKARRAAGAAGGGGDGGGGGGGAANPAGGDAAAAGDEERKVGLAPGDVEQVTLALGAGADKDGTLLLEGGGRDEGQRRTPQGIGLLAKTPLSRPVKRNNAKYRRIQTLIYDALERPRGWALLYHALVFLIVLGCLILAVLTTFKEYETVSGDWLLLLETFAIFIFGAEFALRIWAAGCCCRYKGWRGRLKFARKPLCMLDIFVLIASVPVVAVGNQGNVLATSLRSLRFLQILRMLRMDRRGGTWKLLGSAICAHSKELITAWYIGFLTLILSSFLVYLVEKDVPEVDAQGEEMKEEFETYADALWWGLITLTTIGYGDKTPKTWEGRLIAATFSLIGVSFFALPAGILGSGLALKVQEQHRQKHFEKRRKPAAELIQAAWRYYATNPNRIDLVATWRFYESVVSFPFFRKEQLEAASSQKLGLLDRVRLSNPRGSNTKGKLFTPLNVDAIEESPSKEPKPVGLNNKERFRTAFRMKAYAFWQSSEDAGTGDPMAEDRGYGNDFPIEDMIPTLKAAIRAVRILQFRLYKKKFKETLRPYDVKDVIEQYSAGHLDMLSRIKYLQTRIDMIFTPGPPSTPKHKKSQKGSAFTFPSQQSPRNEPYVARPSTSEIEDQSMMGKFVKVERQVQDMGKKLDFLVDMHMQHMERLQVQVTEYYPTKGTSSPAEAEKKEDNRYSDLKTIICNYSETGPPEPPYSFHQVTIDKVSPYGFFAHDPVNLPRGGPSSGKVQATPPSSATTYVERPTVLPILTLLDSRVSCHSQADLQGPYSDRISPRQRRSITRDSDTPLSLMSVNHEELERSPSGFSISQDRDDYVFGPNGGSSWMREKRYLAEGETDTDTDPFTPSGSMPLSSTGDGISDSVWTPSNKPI

SMILES: C1=C2CCCN[C@H]2[C@@H]2C[C@H]1[C@H]1CCCCN1C2 [Aloperine, aloperine, reference compound]
Slope [1, 6]: 6.96 ± 0.67 mV
V0.5 Normalized tail current [1, 6]: -46.72 ± 0.78 mV
channel opening [2]: weak KCNQ3/5 opener

SMILES: CC(=O)Oc1c(C(C)C)cc2c(c1OC(C)=O)C1(C(=O)O)CCCC(C)(C)C1CC2 (stereo not shown) [Carnosic acid diacetate]
solubility (highest testable concentration) ([3]; pH 7.6): solubility issues
Slope ([4]; 10 µM): 6.11 ± 0.49 mV
V0.5 Normalized tail current ([4]; 10 µM): -38.43 ± 0.56 mV
shift in V0.5act / opening ([4]; 10 µM): only weakly negative-shifted
Slope ([1]; 10 µM): 5.06 ± 0.63 mV
V0.5 Normalized tail current ([1]; 10 µM): -50.38 ± 0.69 mV
shift in V0.5act / opening ([1]; 10 µM): only weakly negative-shifted

solubility (highest testable concentration) ([3]; bath solution): solubility issues
Slope ([4]; 10 µM): 6.78 ± 0.62 mV
V0.5 Normalized tail current ([4]; 10 µM): -40.71 ± 0.71 mV
effect on EM of unclamped oocytes ([4]; 10 µM): without hyperpolarizing
shift in V0.5act / opening ([4]; 10 µM): −10 mV
Slope ([5]; 10 µM): 6.47 ± 0.40 mV
V0.5 Normalized tail current ([5]; 10 µM): -46.18 ± 0.46 mV
Slope ([1]; 10 µM): 4.81 ± 0.56 mV
V0.5 Normalized tail current ([1]; 10 µM): -54.06 ± 0.70 mV
effect on EM of unclamped oocytes ([1]; 10 µM): without hyperpolarizing
shift in V0.5act / opening ([1]; 10 µM): −8.7 mV
SMILES: CC(C)c1cc2c3c(c1O)OC(=O)C31CCCC(C)(C)C1CC2 (stereo not shown) [Carnosic gamma lactone, carnosic acid γ-lactone]

Slope ([4]; 100 µM): 5.82 ± 0.75 mV
V0.5 Normalized tail current ([4]; 100 µM): -47.80 ± 0.87 mV
effect on EM of unclamped oocytes ([4]; 100 µM): did not alter
shift in V0.5act ([4]; 100 µM): no shift
Slope ([5]; 100 µM): 3.97 ± 1.31 mV
V0.5 Normalized tail current ([5]; 100 µM): -57.08 ± 1.31 mV
effect on EM of unclamped oocytes ([5]; 100 µM): did not alter
Slope ([1]; 100 µM): 5.00 ± 1.11 mV
V0.5 Normalized tail current ([1]; 100 µM): -61.13 ± 1.28 mV
shift in V0.5act ([1]; 100 µM): −11 mV
effect on EM of unclamped oocytes ([1]; 100 µM (hesperidin 30 µM)): did not alter
SMILES: CC(C)c1cc2c(c(O)c1O)[C@@]13CCCC(C)(C)[C@@H]1C[C@@H]2OC3=O [Carnosol]

Slope ([4]; 100 µM): 6.71 ± 0.64 mV
V0.5 Normalized tail current ([4]; 100 µM): -37.81 ± 0.73 mV
Slope ([1]; 100 µM): 4.92 ± 0.40 mV
V0.5 Normalized tail current ([1]; 100 µM): -49.25 ± 0.43 mV
hyperpolarization of EM ([1]; 100 µM, unclamped oocytes): > 8 mV
SMILES: COc1c(C(C)C)cc2c(c1OC)C13CCCC(C)(C)C1CC2OC3=O (stereo not shown) [Dimethylcarnosol, dimethyl carnosol]

SMILES: COc1ccc([C@@H]2CC(=O)c3c(O)cc(O[C@@H]4O[C@H](CO[C@@H]5O[C@@H](C)[C@H](O)[C@@H](O)[C@H]5O)[C@@H](O)[C@H](O)[C@H]4O)cc3O2)cc1O [Hesperidin, hesperidin]
solubility ([3]; oocyte recording bath solution, pH 7.6, aqueous buffer, read-out: solubility (highest testable concentration)): ≤ 30 µM
Slope ([4]; 30 µM): 7.73 ± 0.60 mV
V0.5 Normalized tail current ([4]; 30 µM): -48.08 ± 0.71 mV
V0.5act shift ([4]; 30 µM): −10.4 mV
V0.5 non-normalized tail current ([4]; 30 µM): -48.30 ± 2.77 mV
effect on EM of unclamped oocytes ([4]; 30 µM): hyperpolarized
channel opening ([5]; 30 µM): did not open
Slope ([5]; 100 µM): 6.54 ± 0.41 mV
V0.5 Normalized tail current ([5]; 100 µM): -45.73 ± 0.48 mV
Slope ([1]; 30 µM): 4.65 ± 0.46 mV
V0.5 Normalized tail current ([1]; 30 µM): -55.97 ± 0.57 mV
V0.5 non-normalized tail current ([1]; 30 µM): -55.83 ± 1.97 mV
shift in V0.5act ([1]; 30 µM): ~ −10 mV
effect on EM of unclamped oocytes ([1]; 100 µM (hesperidin 30 µM)): hyperpolarized

SMILES: COC(=O)[C@]12CCCC(C)(C)[C@@H]1CCc1cc(C(C)C)c(O)c(O)c12 [Methyl carnosate, methyl carnosate]
solubility (highest testable concentration) ([3]; pH 7.6): poor solubility
Slope ([4]; 10 µM): 10.46 ± 0.87 mV
V0.5 Normalized tail current ([4]; 10 µM): -34.00 ± 0.97 mV
shift in V0.5act / opening ([4]; 10 µM): did not open
Slope ([1]; 10 µM): 4.63 ± 0.74 mV
V0.5 Normalized tail current ([1]; 10 µM): -47.09 ± 0.74 mV
shift in V0.5act / opening ([1]; 10 µM): only a weak activator
